Results: patent publication US8562949B2, “Radiolabeled dihydrotetrabenazine derivatives and their use as imaging agents” (The Trustees of the University of Pennsylvania, priority 2006, dated 2013)

Experiments:
[1] = Uptake in diabetic mice (FIG. 6); assay type: in vivo
[2] = biological target: VMAT2 (Rattus norvegicus, UniProt Q01827); assay: Competition for [3H](±)TBZ binding in rat striatal homogenates; design: The basal forebrain regions of rat and mouse brains were then dissected; from tissue; host or cells: rat striatum / basal forebrain homogenate; settings: [3H](±)TBZ 1.0-1.5 nM, Kd […] used for calculation
[3] = biological target: monoamine transporter (UniProt Q27963); settings: membranes of chromaffin granules and brain tissue samples; cited from earlier work
[4] = biological target: VMAT2 (Mus musculus, UniProt Q8BRU6); assay: In vitro autoradiography of mouse brain sections; assay type: binding
Chain of VMAT2 (Mus musculus, UniProt Q8BRU6) (Q8BRU6 whole entry): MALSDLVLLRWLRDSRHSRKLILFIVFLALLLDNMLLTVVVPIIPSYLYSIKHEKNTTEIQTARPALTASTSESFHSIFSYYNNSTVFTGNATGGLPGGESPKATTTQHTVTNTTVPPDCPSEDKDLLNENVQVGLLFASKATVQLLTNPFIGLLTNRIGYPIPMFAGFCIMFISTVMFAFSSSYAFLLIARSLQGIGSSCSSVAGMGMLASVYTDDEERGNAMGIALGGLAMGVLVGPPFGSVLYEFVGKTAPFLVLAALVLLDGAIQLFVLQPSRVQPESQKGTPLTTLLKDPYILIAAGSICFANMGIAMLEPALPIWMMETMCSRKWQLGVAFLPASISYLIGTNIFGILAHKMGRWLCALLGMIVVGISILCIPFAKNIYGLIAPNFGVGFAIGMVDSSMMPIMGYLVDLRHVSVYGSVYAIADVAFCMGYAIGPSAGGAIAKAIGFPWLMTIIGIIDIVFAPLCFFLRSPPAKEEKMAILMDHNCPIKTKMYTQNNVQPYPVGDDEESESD

Chain of VMAT2 (Rattus norvegicus, UniProt Q01827) (Q01827 whole entry): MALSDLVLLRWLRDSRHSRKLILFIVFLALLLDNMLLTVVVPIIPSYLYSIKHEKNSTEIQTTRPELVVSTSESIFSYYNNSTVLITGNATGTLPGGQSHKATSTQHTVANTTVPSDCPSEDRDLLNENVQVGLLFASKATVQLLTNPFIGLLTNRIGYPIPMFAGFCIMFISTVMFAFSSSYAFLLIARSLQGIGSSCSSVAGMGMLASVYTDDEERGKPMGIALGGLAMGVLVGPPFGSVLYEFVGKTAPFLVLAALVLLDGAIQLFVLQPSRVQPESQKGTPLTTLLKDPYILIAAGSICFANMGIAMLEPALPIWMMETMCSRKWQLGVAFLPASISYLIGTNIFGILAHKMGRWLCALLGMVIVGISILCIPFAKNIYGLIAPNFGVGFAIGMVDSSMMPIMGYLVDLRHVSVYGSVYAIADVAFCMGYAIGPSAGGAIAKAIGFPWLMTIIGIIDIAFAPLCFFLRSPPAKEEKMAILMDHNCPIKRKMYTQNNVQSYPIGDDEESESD

Compound: COc1cc2c(cc1OCCCF)CCN1CC(CC(C)C)C(O)CC21 (stereo not drawn) [FP-(+)-DTBZ]
- uptake in diabetic mice [1]: reduced
- Ki [2]: 0.1 nM

Compound: COc1cc2c(cc1OC)C1CC(O)C(CC(C)C)CN1CC2 (stereo not shown) [[^3H]dihydro-TBZ, 2-hydroxy-3-(2-methylpropyl)-9,10-dimethoxy-1,3,4,6,7,11b-hexahydro-2H-benzo[a]quinolizine]
- Kd [3]: 2 to 9 nM

Compound: COc1cc2c(cc1OCCCF)CCN1CC(CC(C)C)C(O)CC21 (racemic) [[^18F]6b]
- regional labeling in presence of 1 μM (±)TBZ [4]: completely eliminated
